test: gradient 5% acetonitrile 3 min, to 50% in 2 min, to 85% in 15 min, held 3 min, 100 µL/min; details: column: Zorbax Extend-C18 2.1 x 50 mm; eluents: water / acetonitrile, 0.1% formic acid
Outline: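 A Zorbax Extend-C18 column (2.1 × 50 mm, 1.8 μm) run at 100 μL/min with water and acetonitrile, both containing 0.1% formic acid, separated mixtures of ~100 pure standards. The HPLC was coupled to a quadrupole time-of-flight mass spectrometer operated in positive and negative ionization mode, with dead and dwell volumes of 40 μL and 900 μL. Each retention time was taken from a computationally picked adduct peak that was then manually inspected.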

Row | Compound | RP-LC retention time [s]
1 | Cc1cccc(CNC(=O)C2(C)Cn3cnc(C(=O)NC4CCCCC4)c3C(=O)N2C2CC2)c1 (centres undefined) | 819
2 | CCCNC(=O)c1cn(-c2ncccc2-c2nc(C(C)(C)C)no2)cn1 | 768
3 | CCc1ccccc1NC(=O)N1CCN(c2cc(C)nc(N3CCCC3)n2)CC1 | 670
4 | O=C(Cn1c(=O)c2cccn2c2ccccc21)NCCCN1CCCCC1 | 595
5 | CCc1cc(=O)n(CC(=O)Nc2ccc(F)cc2)c(N2CCOCC2)n1 | 714
6 | CCN1CCC2(CC1)OC(=O)C(C)=C2C(=O)NCCCc1ccccc1 | 654
7 | Cc1cc(C)c(C(=O)N2CCC(CC(=O)NCc3ccccc3C)CC2)[nH]1 | 794
8 | O=C(NC1CCCCCCC1)C1CCN(S(=O)(=O)c2cc(C(=O)N3CCCC3)cs2)CC1 | 902
9 | Cc1cc(NS(=O)(=O)c2cc(-c3[nH]ncc3C(=O)N3CCCCC3)oc2C)ccc1F | 783
10 | CCOC(=O)C1CCN(c2cc3c(cc2NC(=O)C2CC2)n(C)c(=O)c(=O)n3C)CC1 | 758
11 | CCCNC(=O)N1CCCCC1c1nc(C2CC2)n[nH]1 (centres undefined) | 610
12 | CCCc1cc(C2CCCN2C(=O)NCc2ccc(F)cc2)no1 (centres undefined) | 873
13 | CCc1ccc(N2CCC(C(=O)NCCc3c[nH]c4ccc(Cl)cc34)C2=O)cc1 (centres undefined) | 1020
14 | Cc1occc1C(=O)N1CCCn2ccnc2C1c1cnn(C)c1 (centres undefined) | 573
15 | O=S(=O)(c1ccc(Cl)cc1)N1CC(F)(F)C[C@H]1CN1CCc2ccccc2C1 | 647
16 | CC1CCCC(NC(=O)c2cc3sc(Cl)cc3n2C)C1C (centres undefined) | 1230
17 | Cc1noc(C2CN(C(=O)CCCc3ccccc3)CC23CCOCC3)n1 (centres undefined) | 736
18 | COCCCNC(=O)C1c2ccccc2CC(=O)N1C(C)C (centres undefined) | 651
19 | Cc1cnc(C2CC2)n1C1CCN(S(=O)(=O)c2cccc(F)c2)C1 (centres undefined) | 654
20 | Cn1ncc(N2CCCC(C(=O)NC3CCCCCCC3)C2)cc1=O (centres undefined) | 751

Row | Compound | RP-LC retention time [s]
21 | CN(C)C(=O)c1cc2c(s1)CCC(C(=O)N1CCN(c3ccccn3)CC1)C2 (centres undefined) | 570
22 | O=C(NCc1ccc(Cl)cc1)c1ccc(NC(=O)C2CC2)cc1N1CCOCC1 | 843
23 | O=S(=O)(CCOc1ccc(F)cc1)Nc1cccnc1 | 627
24 | CSc1ccccc1NC(=O)C(=O)NCC1CCN(Cc2ccco2)CC1 | 579
25 | O=C(C1CCCN(c2cnc3nccnc3c2)C1)N1CCCCCC1 (centres undefined) | 692
26 | O=C(Cn1nnc2ccccc2c1=O)N1CCN(c2ncccn2)CC1 | 629
27 | CC1CCCCN1S(=O)(=O)c1ccc2nc(N3CCN(c4ccccc4)CC3)ccc2c1 (centres undefined) | 1100
28 | CN(CC1CCCO1)S(=O)(=O)c1ccc(C(=O)N2CCc3ccccc3C2)cc1 (centres undefined) | 808
29 | COc1ccc(S(=O)(=O)N2CCCC(C(=O)NCCO)C2)cc1OC (centres undefined) | 597
30 | O=C(c1cnccn1)N1[C@H]2CC[C@@H]1c1cnc(-c3ccc(F)cc3)nc1C2 | 810
31 | CC1(C(=O)NCCCN2CCc3ccccc3C2)CCCCC(=O)N1 (centres undefined) | 578
32 | O=S(=O)(c1cccc2nsnc12)N1CCCC(Cc2noc(C3CC3)n2)C1 (centres undefined) | 923
33 | CNC(=O)O[C@H]1COc2ccc(N3CCN(C4COC4)CC3)cc2[C@@H]1NC(=O)c1ccc(F)cc1 | 652
34 | O=C(NCC(=O)N1CCCc2ccccc21)C1CCN(S(=O)(=O)c2ccc(Cl)cc2)CC1 | 914
35 | CCc1nn2c(CNC(=O)C3CCCO3)c(-c3ccccc3)nc2s1 (centres undefined) | 765
36 | Cc1csc(NC(=O)C2CCN(S(=O)(=O)c3cc(C(=O)N4CCCC4)n(C)c3)CC2)n1 | 697
37 | CNC(=O)[C@@H]1CN(C(=O)c2cnc(C)cn2)C[C@H]1c1n[nH]c(C)n1 | 549
38 | O=C(CN1C(=O)CCc2cc(Br)ccc21)NCc1cccnc1 | 614
39 | CCc1nn(C)c(=O)c2cc(S(=O)(=O)NCc3cc(F)cc(F)c3)cn12 | 882
40 | Cc1ccc(NC(=O)N2CCCC2c2cc(C)on2)c(C)c1 (centres undefined) | 823

Continued, values first:

Row | RP-LC retention time [s] | Compound
41 | 795 | COC(=O)c1c(NCCc2ccc(Cl)cc2)c2ccc(F)cc2[nH]c1=O
42 | 830 | COC(=O)[C@H](Cc1c[nH]c2ccccc12)NC(=O)c1ccc2c(c1)C(=O)N(C1CC1)C2=O
43 | 948 | CCOc1ccccc1NC(=O)CSc1nnc(Cc2ccccc2)n1-n1cccc1
44 | 696 | CN1C(=O)c2cccn2CC1C(=O)Nc1ccc(F)cc1F (centres undefined)
45 | 1010 | COc1ccc(-c2nnc(Cc3nc(-c4ccc(C)cc4)no3)o2)cc1
46 | 679 | O=c1[nH][nH]c2nnc(-c3c(-c4ccccc4)nn4ccccc34)cc12
47 | 848 | Cc1ccc(C)c(CNC(=O)c2c(C)sc3ccn(C)c(=O)c23)c1
48 | 828 | Cc1cccc(N2CCN(CC(O)COc3ccccc3Cl)CC2)c1 (centres undefined)
49 | 1150 | O=S(=O)(NCc1ccc(F)cc1)c1ccccc1-c1nc(-c2cccc(F)c2)no1
50 | 731 | Cc1ccc2nc(C(=O)NCc3ccc(OC(C)C)cc3)cn2c1
51 | 880 | Cc1cccc(CNC(=O)Cc2csc3nc(-c4ccccc4)cn23)c1
52 | 1070 | COc1ccc(-c2ncc3c(n2)CCN(S(=O)(=O)c2ccccc2Cl)C3)cc1
53 | 638 | COc1ccc(CC(=O)Nc2nc3c(s2)COCC3)cc1OC
54 | 722 | Clc1ccc(CNc2c(-c3ccc4c(c3)OCCO4)nc3ncccn23)cc1
55 | 827 | Cc1ccc(CNC(=O)c2ncn3c2C(=O)N(C2CC2)C(C)(C(=O)NCc2cccc(C)c2)C3)cc1 (centres undefined)
56 | 1240 | Cc1cc(F)ccc1NC(=O)c1c(O)c2cccnc2n(-c2ccc(F)cc2)c1=O
57 | 846 | COc1cccc(C(=O)CSc2ccc(NC(=O)c3cccs3)nn2)c1
58 | 1220 | CCOc1ccccc1NC(=O)N1c2ccccc2CC1c1nc(C(C)C)no1 (centres undefined)
59 | 600 | CC1=C(c2ccc(C)cc2)S(=O)(=O)N=C1N1CCCN(C(=O)C2CCCCC2)CC1
60 | 900 | COCC(=O)N(CC(=O)N1CCc2sccc2C1COc1ccccc1F)CC(C)C (centres undefined)
61 | 741 | Cc1ccc(-c2ncccc2CNS(=O)(=O)Cc2cccc(Cl)c2)cc1
62 | 546 | Cc1cccc(NC(=O)N2CCc3[nH]cnc3C2c2ccncc2)c1C (centres undefined)
63 | 747 | Cc1nnc(-c2cn(CC(=O)Nc3ccc(F)cc3F)c3ccccc23)o1
64 | 1300 | COc1ccc(-c2csc(C(=O)n3nc(C)cc3C)c2-n2cccc2)cc1
65 | 863 | CCC(=O)Nc1ccc(-n2cnc(C(=O)N3CCN(c4cc(C)ccc4C)CC3)c2)nc1

Row | RP-LC retention time [s] | Compound
66 | 799 | COc1ccc(NC(=O)C(C)C2CCN(C(=O)Nc3ccc(F)cc3)CC2)cc1 (centres undefined)
67 | 1130 | Cc1nn(C(C)C(=O)Nc2cc(F)ccc2F)c(=O)c2c(-n3cccc3)n(-c3ccccc3)nc12 (centres undefined)
68 | 1160 | O=C(c1c(F)cccc1Cl)N1CCc2nc(-c3ccc(Cl)cc3)ncc2C1
69 | 766 | COC(=O)c1c(NCCc2cccs2)c2ccc(F)cc2[nH]c1=O
70 | 654 | CCC(C(=O)NCC(=O)Nc1nc2ccccc2[nH]1)c1ccccc1 (centres undefined)
71 | 761 | Cc1ccc(-c2nc(-c3ccc4c(c3)oc(=O)n4C(C)C)no2)c(C)c1
72 | 599 | Clc1ccc(Nc2nnc(Cc3ccncc3)c3ccccc23)cc1
73 | 631 | O=C(Nc1ccc(Cl)cc1)Nc1c(-c2ccncc2)nc2ccccn12
74 | 873 | CCC(=O)NCc1ccc(-c2nc(C(C)C)cs2)cc1
75 | 1250 | CCOc1ccc(-c2csc(Cc3nc(-c4ccc(F)cc4)no3)n2)cc1
76 | 782 | Cc1nn(CC(=O)NCc2ccco2)c(=O)c2nc(-c3ccccc3)sc12
77 | 917 | COc1ccc(-c2nc(-c3nnn(-c4ccc(F)cc4)c3C)no2)cc1OC
78 | 968 | Cc1sc(NC(=O)c2cccc(Cl)c2)nc1-c1ccc2c(c1)NC(=O)CO2
79 | 965 | CC(=O)Nc1ccc(NC(=O)c2cc3sccc3n2Cc2ccc(Cl)cc2)cc1
80 | 695 | COc1ccccc1NC(=O)N1CCN(c2cc(C)nc(N3CCCCC3)n2)CC1
81 | 1080 | CCn1cc(-c2nc(C(=O)N3CCc4ccccc43)cs2)c2cccnc21
82 | 804 | Cc1ccn2c(NC(=O)C(C)(C)Oc3ccc(Cl)cc3)c(-c3ccccc3)nc2c1
83 | 1040 | O=C(Cn1cccc(-c2nc(-c3ccccc3)no2)c1=O)Nc1ccc(Cl)c(C(F)(F)F)c1
84 | 875 | CN(C)S(=O)(=O)c1ccc(COc2ccc(F)cc2)o1
85 | 1290 | CCOc1ccc(-c2csc(NC(=O)CCCOc3ccc(CC)cc3)n2)cc1
86 | 713 | COc1ccc(N(Cc2nnc3n2CCCCC3)C(=O)Nc2ccccc2)c(OC)c1
87 | 853 | Cc1nc(N2CCOCC2)c2c(C(=O)N3CCCc4ccccc43)c(C)oc2n1
88 | 1050 | Cc1cc(C)c(S(=O)(=O)N2CCC(C(=O)NCc3csc(-c4ccccc4)n3)CC2)c(C)c1
89 | 834 | COc1ccc(-c2noc(C3CCCN3C(=O)c3ccsc3)n2)cc1OC (centres undefined)

— the METLIN SMRT retention time set (Domingo-Almenara et al. 2019)
